Data taken from patent publication US8524685B1, “Anti-angiogenic therapeutics efficacy enhanced by nanoformulation” (University of Puerto Rico, priority 2010, dated 2013).

What was measured:
[1] = tested on: capillary endothelial cells; settings: in vitro, capillary endothelial cells plated on fibronectin-coated dishes; cited from earlier work
PERK = assay: Unfolded protein response, western blot of PERK; type: cell-based, bovine; settings: FIG. 5
Experimental: (§1) The capillary endothelial cells were from the laboratory stock of a non-transformed endothelial cell line from bovine adrenal medulla and maintained as previously described. Synchronized cultures (33) were treated with Tunicamycin nanoparticles (1 μg/ml) for 1 h in EMEM containing 2% fetal bovine serum (heat inactivated).
(§2) Performed as before with 7.5% gel concentration.
(§3) It has been observed recently that Tunicamycin inhibits angiogenesis in vitro and in vivo as well as during the breast tumor progression by ER stress-mediated induction of unfolded protein response. In addition, it has also been shown that Tunicamycin gold nanoparticles inhibit capillary endothelial cell cycle progression much more effectively than native Tunicamycin. It was also evaluated if Tunicamycin gold nanoparticles would also activate the pathway that induces the unfolded protein response. The results shown in FIG. 5 indicate that Tunicamycin gold nanoparticles affect both transcription and translation.

breast tumor = settings: athymic nude mice; cited from earlier work
angiogenesis = settings: in vitro/in vivo; cited from earlier work
IRE-1 = assay: Unfolded protein response, western blot of IRE-1; type: cell-based, bovine; settings: FIG. 5
Experimental: as §1, §2, §3

p53p^ser392 = assay: Western blot of p53 phosphorylated in serine392; type: cell-based, bovine; settings: FIG. 3
Experimental: as §1, §2
(§4) To evaluate the biochemical pathway the Tunicamycin nanoparticles are likely to interfere, their effect on the cell cycle progression has been analyzed. The cell cycle antigens have been analyzed focusing primarily on the D-type cycline and their partners because Tunicamycin causes cell cycle arrest in G1. […] Expression of cyclin D1 and its catalytic partner, i.e., CDK4 was analyzed by western blotting. […] There was a little difference with the CDK4 expression. It was higher in cells treated with 20 nm gold particles […], but they both were much reduced compared to the untreated control or cells treated with native Tunicamycin as shown in FIG. 2. p53 is a gate keeper for the cell cycle. Upon phosphorylation p53 migrates to the nucleus and activates gene transcription.

CDK4 = assay: Western blot of CDK4 expression in capillary endothelial cells; type: cell-based, bovine; settings: 1 μg/ml, FIG. 2, for the conjugates also compared to native Tunicamycin
Experimental: as §1, §2, §4

cyclin D1 = assay: Western blot of cyclin D1 expression in capillary endothelial cells; type: cell-based, bovine; settings: 1 μg/ml, FIG. 2
Experimental: as §1, §2, §4

GRP-78/Bip = settings: shown earlier; cited from earlier work
phosphoPERK = assay: Unfolded protein response, western blot of phosphoPERK; type: cell-based, bovine; settings: FIG. 5
Experimental: as §1, §2, §3

[2] = tested on: capillary endothelial cells; assay: MTT assay, capillary endothelial cell viability; type: cell-based, bovine; settings: 1 μg/ml, 3 h at 37° C., FIG. 1
Experimental: as §1
Synchronized capillary endothelial cells were incubated with Tunicamycin (1 μg/ml) alone or with 1 μg/ml of Tunicamycin nanoparticles for 3 h at 37° C. in a CO2 incubator (5% CO2 and 95% air) in 96-well microtiter plates. At the end the plates were processed for the MTT Assay. The results shown in FIG. 1 indicate that the cell viability was reduced to almost 50% (p<0.001) when treated with Tunicamycin conjugated to 20 nm or 50 nm gold particles.

Compound	formation of capillary tubes [1]	PERK activation (PERK)	breast tumor growth (breast tumor)	angiogenesis (angiogenesis)	IRE-1 (transcriptional attenuator) activation (IRE-1)	expression of p53 phosphorylated in serine392 (p53p^ser392) (p53p^ser392)	expression of CDK4 compared to the untreated control (CDK4)	expression of cyclin D1 compared to the untreated control (cyclin D1)	time of treatment at which ER stress is induced (GRP-78/Bip) [h]	phosphoPERK (translational attenuator) activation (phosphoPERK)	effect on capillary endothelial cell viability compared to the control [2]
OC[C@H]1NC[C@@H](O)[C@@H](O)[C@@H]1O [deoxymannojirimycin]	inhibited the formation of capillary tubes										
Tunicamycin		either had no effect or the effect is drastically reduced	reduce the breast tumor growth	inhibit angiogenesis	either had no effect or the effect is drastically reduced	no effect	enhanced	enhanced	3	either had no effect or the effect is drastically reduced	does not show any effect
O[C@H]1[C@H]2[C@H](O)CCCN2C[C@H]1O [swainsonine]	did not inhibit tube formation										
